Results published in patent publication US20180050035A1, “ANTIFUNGAL TREATMENT OF ROSACEA” (Gerbe Labs Inc., priority 2016, published 2018).
≈ marks a conversion by molar mass, not a printed value.

Experiments:
Format in all cases: cell-based
Candida albicans = experiment: Culture of Patient 7, sensitivity of isolate; conditions: Patient 7 culture
Description: (§1) The patient underwent the standard workup for CRS, sleep disorder, and nasal obstruction, plus our diagnostic skin test and sinus CT scan.

gram negative bacteria = experiment: Culture of Patient 7, sensitivity of isolate; conditions: Patient 7 culture
Description: as §1

[1] = test system: Aspergillus fumigatus + Candida albicans co-culture (1:1); experiment: Broth microdilution MIC assay against co-culture of fungal spores; conditions: Table 4, repeated MIC study, agent alone, listed as Itraconazone
Procedure: Broth Microdilution Minimal Inhibitory Concentration (MIC) assays were performed to obtain the MIC values for Itraconazole and Ketoconazole with an antibiotic (Vancomycin or Tobramycin or Amikacin) against the two fungal strains.
The strains were maintained as a frozen glycerol stocks at −80° C. The fungal strains were prepared by thawing a glycerol stock, streaking and growing onto Sabouraud's Dextrose Agar (SDA) plates, overnight at 35±2° C. in aerobic conditions and used for the assay.
The completely synthetic medium RPMI-1640 (with glutamine, without bicarbonate, and with phenol red as a pH indicator) was buffered with 0.165 mol/L MOPS (3-[N-morpholino] propanesulfonic acid) buffer was used as the growth medium for the fungal strains. Overnight cultures of the fungal strains were grown on Difco™ Sabouraud's Dextrose Agar (SDA) plates at 35° C. To induce conidium and sporangiospore formation, the culture plates were transferred to incubator and grown for 5-7 days 30° C. or until good sporulation was obtained. Approximately, 10 mL of 0.85% saline containing 0.01% of Tween 80 was used to poured on to the agar plate containing conidia or sporangiospores and hyphal fragments. The suspension containing conidia or sporangiospores and hyphal fragments was aspirated and transferred to a sterile tube. This mixture was filtered to separate the spores from the vegetative cells of the fungi. […]

CC(=O)N1CCN(c2ccc(OCC3COC(Cn4ccnc4)(c4ccc(Cl)cc4Cl)O3)cc2)CC1 (stereo not drawn) [Ketoconazole]
Sensitivity of cultured isolate (Candida albicans): sensitive

NC[C@H]1O[C@H](O[C@H]2[C@H](O)[C@@H](O[C@H]3O[C@H](CO)[C@@H](O)[C@H](N)[C@H]3O)[C@H](N)C[C@@H]2N)[C@H](N)C[C@@H]1O [tobramycin]
Sensitivity of cultured isolate (gram negative bacteria): sensitive

CCC(C)n1ncn(-c2ccc(N3CCN(c4ccc(OCC5COC(Cn6cncn6)(c6ccc(Cl)cc6Cl)O5)cc4)CC3)cc2)c1=O (stereo not drawn) [Itraconazole]
MIC [1]: 1 µg/mL (≈ 1.42 µM)
